Test results taken from patent US8986758B2, “Method for extracting a traditional herbal medicine component using a polished-rice steaming method” (Amorepacific Corporation, priority 2009, dated 2015).

Key:
[1] = tested on: C57BL/6 mouse-derived pigment cells (Mel-Ab cells); test: Effect of inhibiting melanin production using mouse pigment cells (Dooley's method); assay type: cell-based; conditions: 72 h, each sample at 10 ppm, Mel-Ab cells cultured 3 days, absorbance at 400 nm
Method: C57BL/6 mouse-derived pigment cells (Mel-Ab cells) (Dooley, T. P. et al., Skin pharmacol, 7, pp. 188-200) are cultured in a DMEM ([…]), to which 10% fetal bovine serum, 100 nM 12-O-tetradecanoylphorbol-13-acetate and 1 nM cholera toxin are added, at 37° C. under 5% CO2. The cultured Mel-Ab cells are released by using 0.25% trypsin-EDTA and incubated on a 24-well plate at a concentration of 10^5 cells/well. From the next day, each test sample is added to culture the cells continuously for 3 days.
The test samples used herein include hydroquinone, the extract of traditional herbal medicine of Comparative Example 1 and the extract of traditional herbal medicine obtained by polished-rice steaming method according to Example 1. Each sample is used at a concentration of 10 ppm. Hydroquinone is used as a positive control. Then, the culture medium is removed and the cells are washed with phosphate buffered saline (PBS). The cells are subjected to cell lysis using 1N sodium hydroxide and absorbance is determined at 400 nm. The absorbance measurement is used to calculate % inhibition of melanin production according to the following Mathematical Formula 1. The results are shown in the following Table 1 (Dooley's method). % Inhibition of melanin production=100−{(absorbance of each sample/absorbance of control)×100} [Mathematical Formula 1]

skin = test: Irritation test on panels sensitive to irritation; assay type: in vivo
Text: Particularly, 15 panels sensitive to irritation, such as stinging, burning, etc., are subjected to a test for determining irritation feeling, including stinging, itch and dazzling. […] The results are shown in the following Table 2. <Evaluation Criteria> 0-0.4: No irritation 0.5-1.0: slight irritation 1.1-2.0: mild irritation 2.1-3.0: severe irritation

[2] = grade 0 to 3.0, 0.5 mL applied onto skin, 15 panels, 0-0.4 no, 0.5-1.0 slight, 1.1-2.0 mild, 2.1-3.0 severe irritation

| SMILES | inhibition at 10 ppm [1] [%] | Average (skin; average of stinging and burning grades, grade 0 to 3.0, 0-0.4 no, 0.5-1.0 slight irritation) | Burning (skin; [2]) | Stinging (skin; [2]) | irritation (in words) (skin; summary of Table 2, 0.5 mL applied onto skin) |
| --- | --- | --- | --- | --- | --- |
| Oc1ccc(O)cc1 [Hydroquinone, hydroquinone] | 58.9 | – | – | – | – |
| O=c1cc(CO)occ1O [Kojic acid, kojic acid] | – | 0.68 | 0.50 | 0.85 | perceptible degree of irritation |
